Reference: article PMC11809919, “Quinoxaline-based anti-schistosomal compounds have potent anti-plasmodial activity” (PLOS Pathogens, 2025)
“And” between values parts separate entries of the source, which are not always exact repeats. Equal entries are not always repeated. Where two headings read alike, the source gives them in different places.

What was measured:
S. mansoni adult worms = test system: S. mansoni adult worms; design: method as in PMID 24416463; conditions: 400 compounds of the Malaria Box; cited from earlier work
P. falciparum Dd2 [1] = test: Rate of killing (CFDA-SE labelled RBC reinvasion); format: cell-based, Plasmodium falciparum; conditions: Dd2, 10×IC50, 24 h or 48 h
Method: The rate of killing was evaluated as previously described in Linares et al.. […] After treatment, the compound was removed, and the culture was diluted (1/3) using fresh RBCs (2% haematocrit) pre-labelled with CFDA-SE (carboxylfluorescein diacetate succinimidyl ester, Life Technologies). Following a 48 h incubation under standard conditions, the ability of treated parasites to infect fresh labelled RBCs was measured using a Cytoflex flow cytometer by quantifying double-positive RBCs after labelling the parasites with MitoTracker Deep Red. Parasite viability was determined as the percentage of infected CFDA-SE-labelled RBCs in drug-treated samples at 24 and 48 h, compared to equivalent untreated controls. Standard compounds dihydroartemisinin, chloroquine, and atovaquone were used as benchmarks for comparing the killing rate of the test compounds.

S. mansoni schistosomula = test system: S. mansoni schistosomula; design: method as in Padalino et al. [13]; conditions: ref Padalino et al. [13], cited from earlier work
[2] = test system: P. falciparum ring, trophozoite and schizont stages; test: Stage specificity assay; format: cell-based, Plasmodium falciparum; conditions: for Stage-specificity: 10 h pulse at ring, trophozoite or schizont stage
Method: Stage-specific drug assays were performed following a protocol modified from Murithi et al.. In this assay, parasites were tightly synchronized to the ring stage with repeated 5% sorbitol treatments. On the assay day, schizonts were purified using a 63% Percoll gradient and allowed to […]. […] Parasites were then plated in 96-well plates and exposed to different drug concentrations at various stages: […] Drug treatment was removed through three rounds of washes. Plates were lysed 62 h after drug washout, and parasite growth was assessed similarly to the standard 72 h assay that used constant drug exposure.

[3] = test system: P. falciparum strains Cam/PH0212C, Cam3.II/PH0306-C, UG659, GB4, Tanzania; test: Dose-response assay against panel of geographically distinct strains; format: cell-based, Plasmodium falciparum; conditions: Cambodian isolates
Method: (§1) P. falciparum parasites were cultured at 3% hematocrit in RPMI 1640 (Gibco) medium consisting of 0.5% Albumax II (Gibco), 25 mM HEPES (Sigma), 0.21% sodium bicarbonate, 1x GlutaMAX (Gibco), 25 μg/mL gentamicin (Gibco). A tri-gas mixture (1% O2, 3% CO2, and 96% N2) was used for parasite cultures. Parasites were synchronized using a sorbitol and Percoll density gradient method. The following parasite strains were used: 3D7, Dd2 (MR4, MRA-156, T. Wellems), GB4 (MR4, MRA-925, T. Wellems), UG659 (P. Rosenthal), Tanzania (MR4, MRA-1169, Michal Fried), Cam/PH0212C (R. Fairhurst), and Cam3.II/ PH0306-C (R. Fairhurst). Transfection was performed using ring-stage parasites (5–8% parasitemia) using a Gene Pulser Xcell (Biorad) electroporator.
(§2) Compound dose-response assays were performed in flat-bottom 96-well plates. Tightly synchronized ring-stage parasites were diluted to 1% parasitemia at 2% hematocrit, and incubated with a two-fold serial dilution of compounds in complete medium. Untreated parasites or uninfected RBCs were included in the assay plate as controls. Parasite growth was assessed after 72 h by lysing parasites using 2× lysis buffer consisting of 10 mM Tris-HCl, 5 mM EDTA, 0.1% w/v saponin, and 1% v/v Triton X-100, supplemented with 2× SYBR Green I (Molecular Probes). The fluorescence was measured using a FluorStar Omega v5.11 plate reader. IC50 analysis was performed using GraphPad Prism v9, and statistical significance was determined by a two-sided Mann-Whitney U test. All assays were performed in technical duplicate with at least three biological replicates, as noted in the figure legends.

P. falciparum 3D7 = test: Compound dose-response assay (72 h, SYBR Green I), 3D7; format: cell-based, Plasmodium falciparum; conditions: for Selectivity index HepG2/3D7: HepG2 72 h CC50 / Pf 3D7 IC50; for IC50: 72 h, asexual blood stage
Method: as §1, §2

P. falciparum Dd2 [4] = test: Compound dose-response assay (72 h, SYBR Green I), Dd2; format: cell-based, Plasmodium falciparum; conditions: for Selectivity index HepG2/Dd2: HepG2 72 h CC50 / Pf Dd2 IC50; for IC50: 72 h, asexual blood stage
Method: as §1, §2

[5] = test system: Dd2-Polδ clones C22-1.1 and C22-2.1; test: Dose-response assay on compound 22-selected clones (cross-resistance); format: cell-based, Plasmodium falciparum
Method: Resistance selections were performed using a mutator parasite line Dd2-Polδ with an elevated mutation rate. Three independent flasks with either 1×10^8 or 1×10^9 parasites each were treated with 5×IC50, and parasite death was monitored by microscopy (Giemsa staining). […] After eight days, compounds were removed from the media and the media was changed on alternate days. […] For recrudescent cultures, compound susceptibility was determined by dose-response assays. Parasite clones were obtained by limiting dilution and harvested for genomic DNA extraction, followed by whole-genome sequencing.
as §2

[6] = test system: P. falciparum PfQRP1 mutants (G1612V, D1863Y, D1829*, D1829A); test: Dose-response assay on CRISPR-edited PfQRP1 mutant lines; format: cell-based, Plasmodium falciparum; conditions: for Susceptibility in CRISPR-edited G1612V and D1863Y PfQRP1 lines: versus silent-mutation and wildtype controls
Method: To generate the PfQRP1 hydrolase mutants (D1829stop and D1829A), the pDC2-Cas9-gRNA-donor plasmid was transfected into the P. falciparum Dd2 line. Donor plasmid (50 µg) containing the sgRNA ([…]) and a pfqrp1 homology region of 672 bp, centred on the D1829 residue, was used for transfection. Transfectants were selected using 5 nM WR99210 (a potent inhibitor of P. falciparum dihydrofolate reductase (DHFR) provided by Jacobus Pharmaceuticals) for 8 days, followed by culturing without drug until parasites were observed. Parasite clones were obtained using limiting dilution cloning. Confirmation of gene editing was performed with allele-specific PCR (forward primer […] and reverse primer […]) and Sanger sequencing using an internal primer ([…]).
as §2

HepG2 cells = test system: HepG2 cells; design: method as in Padalino et al. [13]; conditions: ref Padalino et al. [13], cited from earlier work
[7] = test system: 3D7 parasites (hemoglobin, 'free' heme, hemozoin); test: Cellular heme fractionation assay; format: cell-based, Plasmodium falciparum; conditions: 3D7, 0.5 – 2.5× IC50, 30 h
Description: Cellular heme fractionation to measure the amounts of different heme species was thereafter conducted as previously described. […] Pellets were then resuspended in 1× PBS (pH 7.5) and an aliquot of the trophozoite suspension used to quantify the total number of trophozoites isolated using flow cytometry. Contents of the remaining trophozoite pellet were then released by hypotonic lysis and sonication. […] The UV−visible spectrum of each heme fraction as an Fe(III)heme−pyridine complex was measured using a multi-well plate reader (Spectramax 340PC; Molecular Devices). The total amount of each heme species was quantified using a heme standard curve whereby the mass of each heme-Fe species per trophozoite (fg/cell) was calculated by dividing the total amount of each heme species by the corresponding number of parasites in that fraction as determined by flow cytometry. Statistical comparisons and analyses for trends were made on GraphPad Prism version 10 using Students’ t-test with Welch correction. The total amount of heme obtained from each fraction was quantified using a standard curve prepared from a 100 μg/mL heme standard solution of hematin (porcine) in 0.3 M NaOH. Serial dilutions of this standard were carried out in a 96-well plate with 100 μL 0.3 M NaOH as a blank. […] The visible spectra of heme as Fe(III)heme-pyridine complex were recorded in a multi-well plate reader. The amount of heme Fe per cell was calculated by dividing the total heme Fe in each fraction by the number of cells determined in each fraction.

β-hematin formation = test: Detergent-based β-hematin inhibition assay; format: biochemical; conditions: cell-free, NP40 detergent, pH 4.8; read-out: βH Inhibition IC50, individual biological replicate
Method: From this stock 40 μL of each was delivered to wells in the final column (column 12) of a 96-well plate together with distilled water (120 μL) and NP40 detergent (305.5 mM, 40 μL). […] A serial dilution of each compound (100 μL) from column 12 to column 2 was carried out. Column 1 served as a blank with 0 mM sample. A 25 mM hematin stock solution was prepared by sonicating hemin in DMSO for one minute and then suspending 179 μL of this in a 1 M acetate buffer (20 mL, pH 4.8). […] The plate was covered and incubated at 37°C for 5 h. […] Acetone (60 μL) was then added to assist with hematin dispersion. The UV-vis absorbance of the plate wells was read on a SpectraMax […] plate reader.

[8] = test system: P. berghei liver stage parasites; design: method as in PMID 22096101; conditions: cited from earlier work
[9] = 72 h, read-out: 72 h -phenotype EC50
[10] = average of phenotype and motility, read-out: Average EC50
[11] = Plasmodium falciparum, 3D7, 72 h
[12] = Plasmodium falciparum, DD2, 72 h
[13] = HepG2, 24 h, read-out: 24 h CC50
[14] = HepG2, 72 h, read-out: 72 h CC50

| SMILES | Activity against S. mansoni adult worms (S. mansoni adult worms) | Rate of parasite killing (P. falciparum Dd2 [1]) | EC50 (S. mansoni schistosomula; [9]) [nM] | EC50 (S. mansoni schistosomula; [10]) [nM] | EC50 (S. mansoni schistosomula; read-out: Motility EC50) [nM] | Drop in potency for a 10 h pulse compared with continuous exposure for 72 h [2] | Stage-specificity [2] | Potency against panel of geographically distinct strains [3] | Selectivity index HepG2/3D7 (P. falciparum 3D7) | IC50 (P. falciparum 3D7; [11]) [nM] | Selectivity index HepG2/Dd2 (P. falciparum Dd2 [4]) | IC50 (P. falciparum Dd2 [4]; [12]) [nM] | Shift in IC50 in compound 22-selected clones versus parental Dd2-Polδ [5] | Effect of D1829 stop / D1829A PfQRP1 mutation on IC50 [6] | Increase in IC50 in D1829A / D1829 stop PfQRP1 mutants [6] | Susceptibility in CRISPR-edited G1612V and D1863Y PfQRP1 lines [6] | CC50 (HepG2 cells; [13]) [nM] | CC50 (HepG2 cells; [14]) [nM] | also measured |
| --- | --- | --- | --- | --- | --- | --- | --- | --- | --- | --- | --- | --- | --- | --- | --- | --- | --- | --- | --- |
| O=C(Nc1ccc(Cl)c(Cl)c1)Nc1ccc(Cl)c(Cl)c1 [MMV665852] | most active compounds | – | – | – | – | – | – | – | – | – | – | – | – | – | – | – | – | – | – |
| O=[N+]([O-])c1ccc2nc(Nc3ccc(C(F)(F)F)cc3)c(Nc3ccc(C(F)(F)F)cc3)nc2c1 [Compound 31] | – | rapidly reduced parasitemia | 340 | 310 | 280 | 3–4 fold | did not demonstrate a strong stage-specificity | potencies similar to those recorded for the lab strain Dd2 | 8.2 | 9.7 | 5.7 | 14 | small but consistent shift in IC50 | elevated IC50 | 2–3 fold | reduced susceptibility | 8800 | 80 | – |
| O=[N+]([O-])c1ccc2nc(Nc3cc(C(F)(F)F)ccc3F)c(Nc3cc(C(F)(F)F)ccc3F)nc2c1 [Compound 33] | – | rapidly reduced parasitemia | 150 | 150 | 150 | 3–4 fold | did not demonstrate a strong stage-specificity | potencies similar to those recorded for the lab strain Dd2 | 22.2 | 4.5 | 14.1 | 7.1 | unexpectedly not | not affected | – | – | 27500 | 100 | – |
| Brc1ccc(Nc2nc3ccccc3nc2Nc2ccc(Br)cc2)cc1 [MMV007224, 2-N,3-N-bis(4-bromophenyl)quinoxaline-2,3-diamine] | among the most active hits | – | – | – | – | – | – | – | – | – | – | – | – | less potent | – | – | – | – | Levels of 'free' heme or hemozoin relative to untreated controls [7]: no significant changes; Undigested hemoglobin levels [7]: modest concentration-dependent increase; IC50 (β-hematin formation): 146000 nM and 198000 nM; Activity against P. berghei liver stage parasites [8]: did not show activity |
| O=[N+]([O-])c1ccc2nc(Nc3ccc(Cl)c(Cl)c3)c(Nc3ccc(Cl)c(Cl)c3)nc2c1 [Compound 22] | – | rapidly reduced parasitemia | 470 | 440 | 420 | 3–4 fold | did not demonstrate a strong stage-specificity | potencies similar to those recorded for the lab strain Dd2 | 11.9 | 22 | 8.0 | 32 | small but consistent shift in IC50 | elevated IC50 | 2–3 fold | reduced susceptibility | 7400 | 260 | IC50 (P. falciparum 3D7): 21.9 nM; IC50 (P. falciparum Dd2 [4]): 32.4 nM |
